Measurements as given in patent US20230072421A1, “TARGETED RADIOPHARMACEUTICALS FOR THE DIAGNOSIS AND TREATMENT OF PROSTATE CANCER” (Bayer AS, priority 2019, published 2023).

Legend:
VCaP cells = assay: Cell proliferation assay (CellTiter-Glo, 5-day exposure), VCaP; type: cell-based; conditions: 4000 cells/well, Th-227 labelled at 375 kBq/nmol, mean of 1 to 6 experiments
In short: (§1)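 Thorium-227-labelled PSMA small-molecule ligands were tested on prostate cancer lines seeded at 4000 cells/well (VCaP) or 1000 cells/well (22Rv1, C4-2, LNCaP) and incubated overnight at 37 °C, 5% CO2. Viability was read by CellTiter-Glo luminescence at treatment start (sister plates) and after 5-day compound exposure.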

C4-2 cells = assay: Cell proliferation assay (CellTiter-Glo, 5-day exposure), C4-2; type: cell-based; conditions: C4-2, 1000 cells/well, Th-227 labelled at 375 kBq/nmol, mean of 1 to 6 experiments
In short: as §1

22Rv1 cells = assay: Cell proliferation assay (CellTiter-Glo, 5-day exposure), 22Rv1; type: cell-based; conditions: 22Rv1, 1000 cells/well, Th-227 labelled at 375 kBq/nmol, mean of 1 to 6 experiments
In short: as §1

LNCaP cells = assay: Cell proliferation assay (CellTiter-Glo, 5-day exposure), LNCaP; type: cell-based, human; conditions: LNCaP, 1000 cells/well; Th-227 labelled at 375 kBq/nmol; 5-day exposure; mean of 1 to 6 experiments
Experimental: (§2) Inhibition of cell proliferation of Thorium-227 labeled PMSA SMOL ligands was tested different prostate cancer cell lines, namely 22Rv1, VCaP, C4-2 (all from ATCC, Manassas, Va., USA) and LNCaP (DMSZ, Braunschweig). Cells were seeded using the following conditions in 384 well plates (Corning) in 30 μl of growth media at 4000 cells/well for VCaP cells and 1000 cells/well for 22Rv1, C4-2 and LNCaP cells.
(§3) Cells were cultivated an incubator at 37° C. and 5% C02 over night. On the following days cells were treated in triplicates with serial dilutions of PSMA-SMOLs labeled with Th-227 at a specific activity of 375 kBq/nmol (RCP>70% as assessed by iTLC analysis; compounds where RCP was between 50-70% in individual experiments are marked with an * in the table) using a D300e Digital Dispenser (Tecan). In sister plates cell viability at treatment start (d=0) was determined using CellTiter-Glo® assay (CTG, Promega, Madison, Wis., USA), by adding 30 μl per well CTG solution, incubation for 10 min and reading of Luminescence in a PheraStarFSX instrument (BMG Labtech). After a 5-day exposure in the presenced of test compounds, cell viability of treated or untreated control cells was determined again using CellTiter-Glo® assay (Promega, Madison, Wis., USA). […] The DRC software is a Biobook Spreadsheet that was developed by Bayer AG and Bayer Business Services on the IDBS E-Workbook Suite platform (IDBS: ID Business Solutions Ltd., Guildford, UK).

[1] = target: T1, PSMA-expressing LNCaP cells (Homo sapiens, UniProt Q04609); assay: Internalization assay (membrane bound and internalized Th-227); type: cell-based; conditions: 10 nM radiolabeled compound, Th-227 at 375 kBq/nmol, triplicates; for Internalized in LNCaP fmol/10^6 cells 30 min / Membrane bound in LNCaP fmol/10^6 cells 30 min: 30 min incubation; for Internalized in LNCaP fmol/10^6 cells 2 h / Membrane bound in LNCaP fmol/10^6 cells 2 h: 2 h incubation
T1 construct: PSMA-expressing LNCaP cells; endogenous in cells; host or cells: LNCaP
Experimental: For internalization assays 24 well plates (#3526, Corning) were coated with 200 μl Poly-L-Lysine (0.1 mg/ml, #3438-100-01, Fa. Cultrex) per well for 2 h at 37° C. […] Cells were incubated at 37° C. and 5% CO2 over night. On the following day 400 μl of the media were removed and a total of 200 μl growth medium added supplemented with PSMA-SMOLs labeled with Th-227 at 375 kBq/nmol in triplicates. Radiochemical purity of the labeling was analyzed by instant thin layer chromatography and found to be above 70% for all compounds used. The final concentration of radiolabeled SMOLs was in the test wells was 10 nM. Cells were incubated for 30 min or 2 h. After the incubation time supernatants were taken off and cells washed with PBS. Thereafter cells were washed twice with 0.2 ml 50 mM Glycine-HCl buffer (#55097, Sigma Aldrich) and once with PBS and the washing solutions combined in counting vials (#TK75-018, Fa. Corning) and subjected to gamma counting (1470 Wizard automatic gamma counter, Wallac). The resulting counts were attributed to membrane bound radioactivity. Cells were then lysed with 500 μl 0.3N NaOH (#181691.1211, Fa. PanReac AppliChem ITW Reagents) followed by another wash with 500 μl PBS. The NaOH lysate as well as the final wash were combined in vials and subjected to gamma counting as described above. Measured radioactivity was attributed to internalized fraction. Results were calculated as fmol of Th-227 per/10^cells in the membrane bound and internalized fractions from triplicate values.

[2] = test system: LNCaP human prostate cancer cells; assay: LNCaP xenograft efficacy study (T/C tumor area); type: in vivo, SCID mice
In short: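 SCID mice with testosterone pellet bearing s.c. flank LNCaP xenografts (5×10^6 cells in Matrigel) were treated i.v. with a defined radioactive dose once tumors reached 35-50 mm^2 (n=10/group). Tumor area (caliper, longest diameter × perpendicular) measured 2-3× weekly; T/C ratio calculated from tumor areas when vehicle group closed.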

[3] = target: T1, PSMA-expressing LNCaP cells; assay: Binding competition assay against 3H-PSMA-617 on LNCaP cells
In short: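 Compounds added to LNCaP cells in growth medium, 2 h at 37 °C, 5% CO2. After two ice-cold PBS washes, cells lysed in 0.3 M NaOH and bound radioactivity measured by liquid scintillation counting.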

[4] = test system: VCap, C4-2, 22Rv1 and LnCap cells; assay: Cell proliferation assay, summary statements over several cell lines; type: cell-based; conditions: for antiproliferative activity on VCap, C4-2, 22Rv1 and LnCap cells (in words): 227Th-labelled compounds bearing the HOPO chelator Example A
Experimental: as §2
as §3, with “On the following days cells were treated in triplicates with serial dilutions of PSMA-SMOLs labeled with Th-227 at a specific activity of 375 kBq/nmol (RCP>70% as assessed by iTLC analysis; compounds where RCP was between 50-70% in individual experiments are marked with an * in the table) using a D300e Digital Dispenser (Tecan).” left out

[5] = Example IV, day 36 after start of therapy, once 1 MBq/kg
[6] = Example V, day 27 after start of therapy, once 750 kBq/kg

T1 sequence (Q04609 whole entry): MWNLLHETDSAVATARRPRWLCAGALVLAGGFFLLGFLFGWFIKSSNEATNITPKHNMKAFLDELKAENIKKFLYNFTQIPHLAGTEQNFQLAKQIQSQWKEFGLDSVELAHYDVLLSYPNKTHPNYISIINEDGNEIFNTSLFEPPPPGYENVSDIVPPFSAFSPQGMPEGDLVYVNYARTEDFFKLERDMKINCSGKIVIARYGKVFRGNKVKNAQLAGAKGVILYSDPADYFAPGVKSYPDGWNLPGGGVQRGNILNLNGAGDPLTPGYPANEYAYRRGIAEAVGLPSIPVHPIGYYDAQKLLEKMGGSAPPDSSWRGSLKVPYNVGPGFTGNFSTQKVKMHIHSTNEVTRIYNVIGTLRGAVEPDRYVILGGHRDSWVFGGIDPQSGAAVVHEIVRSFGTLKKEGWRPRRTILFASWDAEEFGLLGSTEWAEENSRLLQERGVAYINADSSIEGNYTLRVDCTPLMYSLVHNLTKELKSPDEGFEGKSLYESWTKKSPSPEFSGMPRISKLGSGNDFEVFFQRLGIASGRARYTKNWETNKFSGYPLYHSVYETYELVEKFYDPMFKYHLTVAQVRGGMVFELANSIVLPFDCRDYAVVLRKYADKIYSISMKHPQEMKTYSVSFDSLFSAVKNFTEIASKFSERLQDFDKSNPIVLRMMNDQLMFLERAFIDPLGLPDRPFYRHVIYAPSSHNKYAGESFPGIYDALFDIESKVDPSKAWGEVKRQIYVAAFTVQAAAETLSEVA

Structure (SMILES)	Proliferation assay on cancer cell lines by TTCs Default Pivot #3 IC50 [kBq/mL] VCap 4000cells 375kBq/nmol (mean) (VCaP cells)	Proliferation assay on cancer cell lines by TTCs Default Pivot #3 IC50 [kBq/mL] C4-2 1000cells 375kBq/nmol (mean) (C4-2 cells)	Proliferation assay on cancer cell lines by TTCs Default Pivot #3 IC50 [kBq/mL] 22Rv1 1000cells 375kBq/nmol (mean) (22Rv1 cells)	Proliferation assay on cancer cell lines by TTCs Default Pivot #3 IC50 [kBq/mL] LnCap 1000cells 375kBq/nmol (mean) (LNCaP cells)	Internalized in LNCaP fmol/10^6 cells 30 min [1]	Membrane bound in LNCaP fmol/10^6 cells 30 min [1]	Internalized in LNCaP fmol/10^6 cells 2 h [1]	Membrane bound in LNCaP fmol/10^6 cells 2 h [1]	T/Carea ([2]; Example I, day 27, 1 x 750 kBq/kg)	T/Carea [2, 5]	T/Carea [2, 6]	% remaining 3H-PSMA-617 @ 10 nM (mean) ([3]; LNCaP cells, 10 nM 3H-PSMA-617, competing non-radiolabeled compound 10 nM, 2 h at 37° C., triplicates)	% remaining 3H-PSMA-617 @ 100 nM (mean) ([3]; LNCaP cells, 10 nM 3H-PSMA-617, competing non-radiolabeled compound 100 nM, 2 h at 37° C., triplicates)	competition against 3H-PSMA-617 on PSMA-expressing LNCaP cells (in words) ([3]; comparison between examples)	antiproliferative activity on VCap, C4-2, 22Rv1 and LnCap cells (in words) [4]	antiproliferative activity on VCap and C4-2 cells (in words) ([4]; 227Th-labelled compounds, in comparison to 227Th-labelled examples 1-C monomer, dimer, trimer and tetramer)
Cc1cc2c(c(=O)n1CC(=O)O)[O][227Th]13[O]c4c(cc(C)n(CC(=O)O)c4=O)C(=O)NCCN(CCCN(CCNC(=O)c4cc(C)n(CC(=O)O)c(=O)c4[O]1)CCNC(=O)c1cc(C)n(CC(=O)NCc4ccc(C(=O)N[C@@H](Cc5ccc6ccccc6n5)C(=O)NCCCC[C@H](NC(=O)N[C@@H](CCC(=O)O)C(=O)O)C(=O)O)nc4)c(=O)c1[O]3)CCNC2=O [34-C monomer-227Th]	0.99 kBq/mL	0.15 kBq/mL	1.28 kBq/mL	0.02 kBq/mL	75 fmol/10^6 cells	147 fmol/10^6 cells	325 fmol/10^6 cells	359 fmol/10^6 cells	0.37	0.51	0.37					
Cc1cc(C(=O)NCCN(CCCN(CCNC(=O)c2cc(C)n(CC(=O)O)c(=O)c2O)CCNC(=O)c2cc(C)n(CC(=O)NC[C@H]3CC[C@H](C(=O)N[C@@H](Cc4ccc5ccccc5c4)C(=O)NCCCC[C@H](NC(=O)N[C@@H](CCC(=O)O)C(=O)O)C(=O)O)CC3)c(=O)c2O)CCNC(=O)c2cc(C)n(CC(=O)NC[C@H]3CC[C@H](C(=O)N[C@@H](Cc4ccc5ccccc5c4)C(=O)NCCCC[C@H](NC(=O)N[C@@H](CCC(=O)O)C(=O)O)C(=O)O)CC3)c(=O)c2O)c(O)c(=O)n1CC(=O)O [1-C dimer, (3S,10S,14S,3'S,10'S,14'S)-1,1′-(propane-1,3-diylbis{[(2-{[1-(carboxymethyl)-3-hydroxy-6-methyl-2-oxo-1,2-dihydropyridine-4-carbonyl]amino}ethyl)azanediyl]ethane-2,1-diylcarbamoyl(3-hydroxy-6-methyl-2-oxopyridine-4,1(2H)-diyl)(1-oxoethane-2,1-diyl)azanediylmethylene(1r,4S)cyclohexane-4,1-diyl})bis{3-[(naphthalen-2-yl)methyl]-1,4,12-trioxo-2,5,11,13-tetraazahexadecane-10,14,16-tricarboxylic acid}]												39%	5%	improved competition	high antiproliferative activity	
Cc1cc2c(c(=O)n1CC(=O)O)[O][227Th]13[O]c4c(cc(C)n(CC(=O)O)c4=O)C(=O)NCCN(CCCN(CCNC2=O)CCNC(=O)c2cc(C)n(CC(=O)NCc4ccc(C(=O)N[C@@H](Cc5ccc6ccccc6n5)C(=O)NCCCC[C@H](NC(=O)N[C@@H](CCC(=O)O)C(=O)O)C(=O)O)nc4)c(=O)c2[O]1)CCNC(=O)c1cc(C)n(CC(=O)NCc2ccc(C(=O)N[C@@H](Cc4ccc5ccccc5n4)C(=O)NCCCC[C@H](NC(=O)N[C@@H](CCC(=O)O)C(=O)O)C(=O)O)nc2)c(=O)c1[O]3 [34-C dimer-227Th]	1.25 kBq/mL	0.46 kBq/mL	1.36 kBq/mL	0.02 kBq/mL	100 fmol/10^6 cells	79 fmol/10^6 cells	299 fmol/10^6 cells	185 fmol/10^6 cells		0.46	0.38					
Cc1cc2c(c(=O)n1CC(=O)O)[O][227Th]13[O]c4c(cc(C)n(CC(=O)O)c4=O)C(=O)NCCN(CCCN(CCNC(=O)c4cc(C)n(CC(=O)O)c(=O)c4[O]1)CCNC(=O)c1cc(C)n(CC(=O)NCc4ccc(C(=O)N[C@@H](Cc5ccc6ccccc6n5)C(=O)NCCCC[C@H](NC(=O)N[C@@H](CCC(=O)O)C(=O)O)C(=O)O)nc4)c(=O)c1[O]3)CCNC2=O [34-C monomer]															high antiproliferative activity	improved antiproliferative activity
Cc1cc(C(=O)NCCN(CCCN(CCNC(=O)c2cc(C)n(CC(=O)NCc3ccc(C(=O)N[C@@H](Cc4ccc5ccccc5n4)C(=O)NCCCC[C@H](NC(=O)N[C@@H](CCC(=O)O)C(=O)O)C(=O)O)nc3)c(=O)c2[O-])CCNC(=O)c2cc(C)n(CC(=O)NCc3ccc(C(=O)N[C@@H](Cc4ccc5ccccc5n4)C(=O)NCCCC[C@H](NC(=O)N[C@@H](CCC(=O)O)C(=O)O)C(=O)O)nc3)c(=O)c2[O-])CCNC(=O)c2cc(C)n(CC(=O)NCc3ccc(C(=O)N[C@@H](Cc4ccc5ccccc5n4)C(=O)NCCCC[C@H](NC(=O)N[C@@H](CCC(=O)O)C(=O)O)C(=O)O)nc3)c(=O)c2[O-])c([O-])c(=O)n1CC(=O)O.[227Th+4] [34-C trimer 227Th]	1.1 kBq/mL	0.28 kBq/mL	1.25 kBq/mL	0.03 kBq/mL	68 fmol/10^6 cells	49 fmol/10^6 cells	162 fmol/10^6 cells	93 fmol/10^6 cells		0.41	0.56					
